22 compounds from US12649733B2, “3,6-diamino-pyridazin-3-yl derivatives, pharmaceutical compositions containing them and their uses as pro-apoptotic agents” (LES LABORATOIRES SERVIER, priority 2019, dated 2026) can be followed below.

The subject of test [1] is MOLT-4 cells. The experiment in a line: MOLT-4 cell viability, MTT assay. It counts as cell-based. As to conditions: Homo sapiens, MOLT-4, 48 h, 48 h exposure. Here is the method: (§1) MTT colorimetric assay is based on the mitochondrial reduction of tetrazolium salt by living cells. The viable cell number is proportional to the production of formazan salts, which can be read spectrophotometrically at 540 nm.
(§2) MOLT-4 and H146 cells were purchased from ATCC and cultivated in RPMI 1640 supplemented with 10% heat inactivated fetal bovine serum, penicillin (100 IU/ml), streptomycin (100 μg/ml) and L-glutamine (2 mM). Cells were cultured at 37° C. in a humidified atmosphere containing 5% CO2. Cells were seeded in 96 microwell plates (150 μL per well) and exposed to the compounds for 48 h (3.16 fold serially diluted; 9 concentrations each, triplicates). At the end of incubation time, 15 μL of MTT solution (5 mg/ml) were added per well and the cells were incubated for another 4 h. Then, 100 μL of 10% Sodium Dodecyl Sulfate (SDS)/HCl 10 mM were added per well and the plate was incubated overnight, before measurement of optical density at 540 nm. IC50s were calculated using standard four-parametric curve fitting.

In test [2] the target is BCLXL (Homo sapiens, UniProt Q07817, V10N/V9A). The experiment in a line: Fluorescence polarisation assay (PUMA-based probe displacement). Also: 20 nM protein, 10 nM fluorescent probe. It counts as binding. The protocol:
Fluorescence polarization measures the rotation of a fluorescing species in solution, the larger the molecule the more polarized the fluorescence emission.
[[…]] (GST UniProtKB® primary accession number P08515 and BCLXL UniProtKB® primary accession number Q07817-1),
resulting in an increase in anisotropy. If a compound is added which competitively binds to the same site as the probe, thereby releasing it, anisotropy decreases due to the increased amount of free probe.
An 11-point serial dilution of each compound was prepared in DMSO, the final buffer conditions were 10 mM 4-(2-hydroxyethyl)-1-piperazineethanesulfonic acid [HEPES], 150 mM NaCl, 0.05% Tween 20, pH 7.4 and 5% DMSO. The final protein concentration in the assay was 20 nM with the fluorescent probe present at 10 nM. The experiments were incubated for 2 hours at 23° C. before fluorescence polarization was measured on a Biotek SynergyNeo plate reader (Excitation 485 nm, emission 525 nm, parallel and perpendicular reads). […] The KI values were determined from the IC50 values according to Cer et al, Nucleic Acids Res, 2009, Jul. 1: 37(WebServer issue): W441-W445.

In test [3] the test system is H146 cells. As to the kind of experiment: H146 cell viability, MTT assay. It counts as cell-based. As to conditions: Homo sapiens, NCI-H146, 48 h, 48 h exposure. The protocol: as §1, §2

SMILES strings stand for the structures. pIC50, pKi: −log10 of the molar value.

BCLXL, sequence (Q07817 with tags, fused parts or gaps V9A/V10N): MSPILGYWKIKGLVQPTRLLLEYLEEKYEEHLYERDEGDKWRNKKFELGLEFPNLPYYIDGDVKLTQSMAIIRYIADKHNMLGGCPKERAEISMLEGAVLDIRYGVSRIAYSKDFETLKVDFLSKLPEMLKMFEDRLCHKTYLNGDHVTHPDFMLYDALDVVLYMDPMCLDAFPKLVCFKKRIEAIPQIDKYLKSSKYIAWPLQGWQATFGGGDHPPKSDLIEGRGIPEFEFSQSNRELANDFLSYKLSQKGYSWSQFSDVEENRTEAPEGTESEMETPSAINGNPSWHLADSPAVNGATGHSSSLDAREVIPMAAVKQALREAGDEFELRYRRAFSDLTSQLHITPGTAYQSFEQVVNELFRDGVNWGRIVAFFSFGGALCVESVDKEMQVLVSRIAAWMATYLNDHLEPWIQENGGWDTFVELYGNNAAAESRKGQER

For `Cc1c(Nc2nc(C(=O)O)c(CCCOc3ccccc3)s2)nnc(Nc2nc3ccccc3s2)c1C` [Example 9, 2-({6-[(1,3-Benzothiazol-2-yl)amino]-4,5-dimethylpyridazin-3-yl}amino)-5-(3-phenoxypropyl)-1,3-thiazole-4-carboxylic acid], the pIC50 in test [1] is 5.63; in test [3], 6.68. The pKi in test [2] is 8.40.
For `COCCCc1sc(Nc2nnc(Nc3nc4ccccc4s3)c(C)c2C)nc1C(=O)O` [Example 12], the pIC50 in test [1] was 5.79; in test [3], 6.04. In test [2], the pKi was 7.57.
On the same counts, the results for `Cc1c(Nc2nc(C(=O)O)c(CCCOc3ccccc3F)s2)nnc(Nc2nc3ccccc3s2)c1C` [Example 13, 2-({6-[(1,3-Benzothiazol-2-yl)amino]-4,5-dimethylpyridazin-3-yl}amino)-5-[3-(2-fluorophenoxy)propyl]-1,3-thiazole-4-carboxylic acid] are 5.65, 6.53 and 8.42.
For `Cc1c(Nc2nc(C(=O)O)c(CCCOc3ccc(C(=O)N(C)C)cc3F)s2)nnc(Nc2nc3ccccc3s2)c1C` [Example 14, 2-({6-[(1,3-Benzothiazol-2-yl)amino]-4,5-dimethylpyridazin-3-yl}amino)-5-{3-[4-(dimethylcarbamoyl)-2-fluorophenoxy]propyl}-1,3-thiazole-4-carboxylic acid], in test [2], the pKi is 8.49. In test [3], this compound showed a pIC50 of 5.68.
With `CCc1c(Nc2nc(C(=O)O)cs2)nnc(Nc2nc3ccccc3s2)c1C` [Example 15, 2-({6-[(1,3-Benzothiazol-2-yl)amino]-4-ethyl-5-methylpyridazin-3-yl}amino)-1,3-thiazole-4-carboxylic acid], in test [2], the pKi was 7.43. The compound further had a pIC50 in test [3] of less than 4.82.
On the same counts, the results for `CCc1c(Nc2nc3ccccc3s2)nnc(Nc2nc(C(=O)O)cs2)c1C` [Example 16, 2-({6-[(1,3-Benzothiazol-2-yl)amino]-5-ethyl-4-methylpyridazin-3-yl}amino)-1,3-thiazole-4-carboxylic acid] are 7.28 and 5.09.
On the same counts, the results for `Cc1c(Nc2nc3ccccc3s2)nnc(Nc2nc(C(=O)O)cs2)c1CO` [Example 18, 2-({6-[(1,3-Benzothiazol-2-yl)amino]-4-(hydroxymethyl)-5-methylpyridazin-3-yl}amino)-1,3-thiazole-4-carboxylic acid] are 7.11 and less than 4.82.
With `Cc1c(Nc2nc3ccccc3s2)nnc(Nc2nc(C(=O)O)cs2)c1C1CC1` [Example 19, 2-({6-[(1,3-Benzothiazol-2-yl)amino]-4-cyclopropyl-5-methylpyridazin-3-yl}amino)-1,3-thiazole-4-carboxylic acid], in test [2], the pKi was 7.52. For the same compound, the pIC50 in test [3] is no more than 4.89.
The like results for `Cc1c(Nc2nc(C(=O)O)c(CCCOc3ccc(CCCN(C)C)cc3F)s2)nnc(Nc2nc3ccccc3s2)c1C` [Example 22, 2-({6-[(1,3-Benzothiazol-2-yl)amino]-4,5-dimethylpyridazin-3-yl}amino)-5-(3-{4-[3-(dimethylamino)propyl]-2-fluorophenoxy}propyl)-1,3-thiazole-4-carboxylic acid] were, in that order, 8.54 and 5.67.
Regarding `O=C(O)c1csc(Nc2nnc(Nc3nc4ccccc4s3)c3c2CCC3)n1` [Example 23, 2-[[1-(1,3-Benzothiazol-2-ylamino)-6,7-dihydro-5H-cyclopenta[d]pyridazin-4-yl]amino]thiazole-4-carboxylic acid], the pIC50 in test [1] was 4.89; in test [3] it was no more than 4.90. The pKi in test [2] was 7.40.
The like results for `O=C(O)c1cccc(Nc2nnc(Nc3nc4ccccc4s3)c3c2CCCC3)n1` [Example 24, 6-[[4-(1,3-Benzothiazol-2-ylamino)-5,6,7,8-tetrahydrophthalazin-1-yl]amino]pyridine-2-carboxylic acid] were, in that order, 5.48, 5.16 and 6.85.
On the same counts, the results for `O=C(O)c1cccc(Nc2nnc(Nc3nc4ccccc4s3)c3c2CCC3)n1` [Example 25, 6-[[4-(1,3-benzothiazol-2-ylamino)-6,7-dihydro-5H-cyclopenta[d]pyridazin-1-yl]amino]pyridine-2-carboxylic acid] are 5.15, 5.50 and 6.00.
As to `Cc1c(Nc2nc(C(=O)O)cs2)nnc(Nc2nc3ccccc3s2)c1CO` [Example 27, 2-({6-[(1,3-Benzothiazol-2-yl)amino]-5-(hydroxymethyl)-4-methylpyridazin-3-yl}amino)-1,3-thiazole-4-carboxylic acid], the pIC50 in test [1] is less than 4.89; in test [3], less than 4.82. Also, the pKi in test [2] was 6.51.
On the same counts, the results for `COCc1c(Nc2nc3ccccc3s2)nnc(Nc2nc(C(=O)O)cs2)c1C` [Example 28, 2-({6-[(1,3-Benzothiazol-2-yl)amino]-5-(methoxymethyl)-4-methylpyridazin-3-yl}amino)-1,3-thiazole-4-carboxylic acid] are less than 4.82, less than 4.82 and 6.89.
On the same counts, the results for `CCOCc1c(Nc2nc(C(=O)O)cs2)nnc(Nc2nc3ccccc3s2)c1C` [Example 30, 2-({6-[(1,3-Benzothiazol-2-yl)amino]-4-(ethoxymethyl)-5-methylpyridazin-3-yl}amino)-1,3-thiazole-4-carboxylic acid] are 5.06, less than 4.82 and 7.09.
On the same counts, the results for `CN(c1cc(C2CC2)c(Nc2nc3ccccc3s2)nn1)c1nc(C(=O)O)cs1` [Example 31, 2-({6-[(1,3-Benzothiazol-2-yl)amino]-5-cyclopropylpyridazin-3-yl}(methyl)amino)-1,3-thiazole-4-carboxylic acid] are 5.63, 5.38 and 8.59.
For the compound `Cc1c(-c2sc(Nc3ccc(Nc4nc5ccccc5s4)nn3)nc2C(=O)O)cnn1CC12CC3CC(CC(C3)C1)C2` [Example 32, 5-{1-[(Adamantan-1-yl)methyl]-5-methyl-1H-pyrazol-4-yl}-2-({6-[(1,3-benzothiazol-2-yl)amino]pyridazin-3-yl}amino)-1,3-thiazole-4-carboxylic acid], the pIC50 is 4.88 in test [1] and no more than 5.13 in test [3]. Moreover, the pKi in test [2] was 6.59.
On the same counts, the results for `Cc1c(Nc2nc(C(=O)O)c(-c3cnn(CC45CC6CC(CC(C6)C4)C5)c3C)s2)nnc(Nc2nc3ccccc3s2)c1C` [Example 33, 5-{1-[(Adamantan-1-yl)methyl]-5-methyl-1H-pyrazol-4-yl}-2-({6-[(1,3-benzothiazol-2-yl)amino]-4,5-dimethylpyridazin-3-yl}amino)-1,3-thiazole-4-carboxylic acid] are 5.20, 5.36 and 7.19.
Turning to `CC(C)c1cc(N(C)c2nc(C(=O)O)cs2)nnc1Nc1nc2ccccc2s1` [Example 34, 2-({6-[(1,3-Benzothiazol-2-yl)amino]-5-(propan-2-yl)pyridazin-3-yl}(methyl)amino)-1,3-thiazole-4-carboxylic acid], the results for the negative logarithm of the IC50 (pIC50) in test [1] and in test [3] were 5.41 and 5.27, respectively. In addition, the pKi in test [2] is 8.05.
In the case of `COCCCC1(Cn2ncc(-c3sc(Nc4nnc(Nc5nc6ccccc6s5)c(C)c4C)nc3C(=O)O)c2C)CCCCCCC1` [Example 35, 2-({6-[(1,3-Benzothiazol-2-yl)amino]-4,5-dimethylpyridazin-3-yl}amino)-5-(1-{[1-(3-methoxypropyl)cyclooctyl]methyl}-5-methyl-1H-pyrazol-4-yl)-1,3-thiazole-4-carboxylic acid], the pIC50 is 5.43 in test [1] and 5.63 in test [3]. The negative logarithm of the Ki (pKi) in test [2] is 7.23.
On the same counts, the results for `COCCCC1(Cn2ncc(-c3sc(Nc4nnc(Nc5nc6ccccc6s5)c(C)c4C)nc3C(=O)O)c2C)CCCCC1` [Example 36, 2-({6-[(1,3-benzothiazol-2-yl)amino]-4,5-dimethylpyridazin-3-yl}amino)-5-(1-{[1-(3-methoxypropyl)cyclohexyl]methyl}-5-methyl-1H-pyrazol-4-yl)-1,3-thiazole-4-carboxylic acid] are 5.46, 5.70 and 7.55.
On the same counts, the results for `CCN(c1cc(C)c(Nc2nc3ccccc3s2)nn1)c1nc(C(=O)O)cs1` [Example 37, 2-({6-[(1,3-Benzothiazol-2-yl)amino]-5-methylpyridazin-3-yl}(ethyl)amino)-1,3-thiazole-4-carboxylic acid] are 5.13, 4.96 and 7.82.
